# In patent US4294833A, “Substituted 4-hydroxy-isophthalic acid picolylamides having a pharmaceutical activity in thromboembolic disorders” (Societa Italo-Britannica, priority 1977, dated 1981):
# Tested on: CaCl2-induced plasma coagulation
# Experiment: Anticoagulant activity on PRP, Hartert's thromboelastograph
# Format: in vivo, New Zealand rabbits
# Conditions: Oryctolagus cuniculus, ip, percent increase of total time for coagulum formation (r+k) vs before treatment; 25 mg/kg intraperitoneal, rabbits; read-out: anticoagulant activity (AC)
# Procedure, shortened: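 Animals dosed at 25 mg/kg i.p.; PRP coagulation induced with 1.29% CaCl2 and followed by Hartert thromboelastography. Activity given as percent increase in r+k (total coagulum formation time) after treatment versus pre-treatment value.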
row,Compound,change in vivo at 25 mg/kg
1,CCCCCCCOc1ccc(C(=O)NCc2cccnc2)cc1C(=O)NCc1cccnc1 [Example 5],18%
2,CCCCCCOc1ccc(C(=O)NCc2cccnc2)cc1C(=O)NCc1cccnc1 [Example 4],19.5%
3,CCCCCOc1ccc(C(=O)NCc2cccnc2)cc1C(=O)NCc1cccnc1 [Example 3],27.4%
4,CCCCCCCCOc1ccc(C(=O)NCc2cccnc2)cc1C(=O)NCc1cccnc1 [Example 6],16.9%
5,CCCOc1ccc(C(=O)NCc2cccnc2)cc1C(=O)NCc1cccnc1 [Example 1],21.5%
6,CCCCOc1ccc(C(=O)NCc2cccnc2)cc1C(=O)NCc1cccnc1 [Example 2],23.2%

# Same assay, conditions: percent increase of total time for coagulum formation (r+k) vs before treatment; 25 mg/kg intraperitoneal, rabbits; 25 mg/kg
row,Compound,anticoagulant activity (AC)
1,CCC(C)(C)Oc1c(Cl)cc(C(=O)NCc2cccnc2)cc1C(=O)NCc1cccnc1 [Example 38],"12,9%"

# Tested on: platelet aggregation induced by thrombin
# Experiment: Platelet aggregation inhibitory activity in vivo (Born aggregometer), thrombin-induced
# Set-up: species or system New Zealand rabbits
# Conditions: Oryctolagus cuniculus, Platelet, ip, dose for 50% inhibition of thrombin-induced aggregation curve; rabbits, intraperitoneal, blood 2, 4 and 6 hours after injection; read-out: platelet antiaggregant activity (AAP), DI50, Thrombin
# Procedure, shortened: (§1)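 Fasted New Zealand rabbits under Nembutal anaesthesia (35 mg/kg i.m.) received compound intraperitoneally. Carotid blood was taken before and 2, 4 and 6 h after dosing and citrated to prepare PRP for ADP- or thrombin-induced Born aggregometry. DI50 (mg/kg) is the dose halving the aggregation curve relative to the same animal's pre-dose plasma.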
row,Compound,ED50
1,CCCCCCCOc1ccc(C(=O)NCc2cccnc2)cc1C(=O)NCc1cccnc1 [Example 5],18.1 mg/kg
2,CCCCCCOc1ccc(C(=O)NCc2cccnc2)cc1C(=O)NCc1cccnc1 [Example 4],17.3 mg/kg
3,CCCCCOc1ccc(C(=O)NCc2cccnc2)cc1C(=O)NCc1cccnc1 [Example 3],17.5 mg/kg
4,CCCCCCCCOc1ccc(C(=O)NCc2cccnc2)cc1C(=O)NCc1cccnc1 [Example 6],19.4 mg/kg
5,CCCOc1ccc(C(=O)NCc2cccnc2)cc1C(=O)NCc1cccnc1 [Example 1],19.3 mg/kg
6,CCCCOc1ccc(C(=O)NCc2cccnc2)cc1C(=O)NCc1cccnc1 [Example 2],18.2 mg/kg

# Same assay, conditions: dose for 50% inhibition of thrombin-induced aggregation curve; rabbits, intraperitoneal, blood 2, 4 and 6 hours after injection
row,Compound,"platelet antiaggregant activity (AAP), DI50, Thrombin"
1,CCC(C)(C)Oc1c(Cl)cc(C(=O)NCc2cccnc2)cc1C(=O)NCc1cccnc1 [Example 38],"34,6 mg/kg"

# Tested on: male Swiss mice
# Experiment: Acute toxicity, intraperitoneal
# Set-up: acute toxicity (LD50 / DL50): unit: mg/kg
# Conditions: mouse, in vivo
# Procedure, shortened: (§2)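 Male Swiss mice (20±2 g), fasted 18 h with water ad libitum, were dosed intraperitoneally and observed for 7 days for symptoms and deaths. Preliminary LD50 (mg/kg) was obtained by graphic interpolation.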
row,Compound,acute toxicity (in words)
1,CCCCCCCOc1ccc(C(=O)NCc2cccnc2)cc1C(=O)NCc1cccnc1 [Example 5],"the acute toxicity increases with an increasing number of carbon atoms in the substituent R"""
2,CCCCCCOc1ccc(C(=O)NCc2cccnc2)cc1C(=O)NCc1cccnc1 [Example 4],"the acute toxicity increases with an increasing number of carbon atoms in the substituent R"""
3,CCCCCOc1ccc(C(=O)NCc2cccnc2)cc1C(=O)NCc1cccnc1 [Example 3],"the acute toxicity increases with an increasing number of carbon atoms in the substituent R"""
4,CCCCCCCCOc1ccc(C(=O)NCc2cccnc2)cc1C(=O)NCc1cccnc1 [Example 6],"the acute toxicity increases with an increasing number of carbon atoms in the substituent R"""
5,CCCOc1ccc(C(=O)NCc2cccnc2)cc1C(=O)NCc1cccnc1 [Example 1],"the acute toxicity increases with an increasing number of carbon atoms in the substituent R"""
6,CCCCOc1ccc(C(=O)NCc2cccnc2)cc1C(=O)NCc1cccnc1 [Example 2],"the acute toxicity increases with an increasing number of carbon atoms in the substituent R"""

# Same assay, conditions: mouse, in vivo, ip, 10080 min
row,Compound,acute toxicity (LD50 / DL50)
1,CCC(C)(C)Oc1c(Cl)cc(C(=O)NCc2cccnc2)cc1C(=O)NCc1cccnc1 [Example 38],322

# Tested on: not listed separately
# Experiment: Acute toxicity, intraperitoneal
# Set-up: acute toxicity (LD50 / DL50): unit: mg/kg
# Conditions: mouse, in vivo, ip, male Swiss mice, intraperitoneal, 7 days observation; preliminary, by graphic interpolation; read-out: acute toxicity (LD50 / DL50)
# Procedure, shortened: as §2
row,Compound,LD50 at 168 h
1,CCCCCCCOc1ccc(C(=O)NCc2cccnc2)cc1C(=O)NCc1cccnc1 [Example 5],181 mg/kg
2,CCCCCCOc1ccc(C(=O)NCc2cccnc2)cc1C(=O)NCc1cccnc1 [Example 4],175 mg/kg
3,CCCCCOc1ccc(C(=O)NCc2cccnc2)cc1C(=O)NCc1cccnc1 [Example 3],380 mg/kg
4,CCCCCCCCOc1ccc(C(=O)NCc2cccnc2)cc1C(=O)NCc1cccnc1 [Example 6],187 mg/kg
5,CCCOc1ccc(C(=O)NCc2cccnc2)cc1C(=O)NCc1cccnc1 [Example 1],600 mg/kg
6,CCCCOc1ccc(C(=O)NCc2cccnc2)cc1C(=O)NCc1cccnc1 [Example 2],573 mg/kg

# Tested on: platelet aggregation induced by ADP
# Experiment: Platelet aggregation inhibitory activity in vivo (Born aggregometer), ADP-induced
# Set-up: species or system New Zealand rabbits
# Conditions: Oryctolagus cuniculus, Platelet, ip, dose for 50% inhibition of ADP-induced aggregation curve; rabbits, intraperitoneal, blood 2, 4 and 6 hours after injection; read-out: platelet antiaggregant activity (AAP), DI50, ADP
# Procedure, shortened: as §1
row,Compound,ED50
1,CCCCCCCOc1ccc(C(=O)NCc2cccnc2)cc1C(=O)NCc1cccnc1 [Example 5],24.6 mg/kg
2,CCCCCCOc1ccc(C(=O)NCc2cccnc2)cc1C(=O)NCc1cccnc1 [Example 4],22.9 mg/kg
3,CCCCCOc1ccc(C(=O)NCc2cccnc2)cc1C(=O)NCc1cccnc1 [Example 3],25.3 mg/kg
4,CCCCCCCCOc1ccc(C(=O)NCc2cccnc2)cc1C(=O)NCc1cccnc1 [Example 6],25.9 mg/kg
5,CCCOc1ccc(C(=O)NCc2cccnc2)cc1C(=O)NCc1cccnc1 [Example 1],27.5 mg/kg
6,CCCCOc1ccc(C(=O)NCc2cccnc2)cc1C(=O)NCc1cccnc1 [Example 2],26.7 mg/kg

# Same assay, conditions: dose for 50% inhibition of ADP-induced aggregation curve; rabbits, intraperitoneal, blood 2, 4 and 6 hours after injection
row,Compound,"platelet antiaggregant activity (AAP), DI50, ADP"
1,CCC(C)(C)Oc1c(Cl)cc(C(=O)NCc2cccnc2)cc1C(=O)NCc1cccnc1 [Example 38],"54,3 mg/kg"

# Tested on: blood coagulum
# Experiment: Fibrinolytic activity, Fearnley method (lysis of blood coagulum in toto)
# Format: in vivo
# Conditions: Oryctolagus cuniculus, ip, 0.5 h, percent decrease of coagulum weight after 30 minutes at 37° C.; 25 mg/kg intraperitoneal, rabbits; read-out: fibrinolytic activity (FL)
# Procedure, shortened: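 Rabbits received compounds at 25 mg/kg i.p., and 0.2 ml ear-vein blood was drawn before and after dosing. Blood was mixed with pH 7.4 phosphate buffer and thrombin (50 NIH units/ml solution), held 30 min on ice, then 30 min at 37 °C. Activity is the percent decrease in clot weight.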
row,Compound,fibrinolytic activity (percent decrease of coagulum weight) at 25 mg/kg
1,CCCCCCCOc1ccc(C(=O)NCc2cccnc2)cc1C(=O)NCc1cccnc1 [Example 5],38.8%
2,CCCCCCOc1ccc(C(=O)NCc2cccnc2)cc1C(=O)NCc1cccnc1 [Example 4],41.3%
3,CCCCCOc1ccc(C(=O)NCc2cccnc2)cc1C(=O)NCc1cccnc1 [Example 3],36.2%
4,CCCCCCCCOc1ccc(C(=O)NCc2cccnc2)cc1C(=O)NCc1cccnc1 [Example 6],36.4%
5,CCCOc1ccc(C(=O)NCc2cccnc2)cc1C(=O)NCc1cccnc1 [Example 1],32.4%
6,CCCCOc1ccc(C(=O)NCc2cccnc2)cc1C(=O)NCc1cccnc1 [Example 2],35.7%

# Same assay, conditions: percent decrease of coagulum weight after 30 minutes at 37° C.; 25 mg/kg intraperitoneal, rabbits; 25 mg/kg
row,Compound,fibrinolytic activity (FL)
1,CCC(C)(C)Oc1c(Cl)cc(C(=O)NCc2cccnc2)cc1C(=O)NCc1cccnc1 [Example 38],"19,3%"

# Tested on: thrombin-induced coagulation of platelet rich plasma
# Experiment: Antithrombin activity on PRP, Hartert's thromboelastograph
# Format: in vivo, New Zealand rabbits
# Conditions: Oryctolagus cuniculus, Platelet, ip, percent decrease of index ma/[r+k] vs before treatment; 20 mg/kg intraperitoneal, rabbits
# Procedure, shortened: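 Compounds were given intraperitoneally at 20 mg/kg, and coagulation of platelet rich plasma was then induced with thrombin (60 units, pH 7.4) and recorded on a Hartert thromboelastograph. Activity is the percent decrease of the ma/(r+k) index relative to the pre-treatment value.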
row,Compound,inhibition in vivo at 20 mg/kg
1,CCCCCCCOc1ccc(C(=O)NCc2cccnc2)cc1C(=O)NCc1cccnc1 [Example 5],46.5%
2,CCCCCCOc1ccc(C(=O)NCc2cccnc2)cc1C(=O)NCc1cccnc1 [Example 4],47.6%
3,CCCCCOc1ccc(C(=O)NCc2cccnc2)cc1C(=O)NCc1cccnc1 [Example 3],43%
4,CCCCCCCCOc1ccc(C(=O)NCc2cccnc2)cc1C(=O)NCc1cccnc1 [Example 6],45.4%
5,CCCOc1ccc(C(=O)NCc2cccnc2)cc1C(=O)NCc1cccnc1 [Example 1],38.6%
6,CCCCOc1ccc(C(=O)NCc2cccnc2)cc1C(=O)NCc1cccnc1 [Example 2],40.1%

# Same assay, conditions: percent decrease of index ma/[r+k] vs before treatment; 20 mg/kg intraperitoneal, rabbits; 20 mg/kg
row,Compound,antithrombin activity (AT)
1,CCC(C)(C)Oc1c(Cl)cc(C(=O)NCc2cccnc2)cc1C(=O)NCc1cccnc1 [Example 38],"22,0%"
